Legend:
Kv7.1 = Kv7.1 (Homo sapiens, UniProt P51787); assay: G(V) shift of Kv7.1 expressed in Xenopus laevis oocytes, two-electrode voltage-clamp; type: cell-based; details: Kv7.1, 70 μM, pH 7.4
Source text: cDNAs encoding human Kv7.1 (GEnBAnk Acc. No. NM_000218) and KCNE1 (NM_000219) were subcloned into the expression vectors pGEM or pXOOM, containing the 5′- and 3′-untranslated regions for Xenopus laevis β-globin as well as a poly-A segment (Jespersen et al., Biotechniques 32, 536-538, 540 (2002)). The truncated KCNE1 construct KCNE1ΔC was constructed by introducing a Stop codon at position 67 using Quikchange site-directed mutagenesis kit (Qiagen). The construct was fully sequenced to ensure proper mutation and absence of unwanted mutations (sequencing by Genewiz). The concatemers E1-Kv7.1-Kv7.1 and E1-Kv7.1 were provided by Dr. R. S. Kass at Columbia University, and can be prepared as described in Chan et al. Journal of General Physiology 132(2), 135-144, (2012)). The E1-Kv7.1 construct was made by linking the C-terminus of KCNE1 to the N-terminus of KCNQ1. The E1-Kv7.1-Kv7.1 construct was made by digesting the E1-Kv7.1 and a Kv7.1-Kv7.1 dimer with Xho1 and inserting the 2-kb fragment from the Kv7.1-Kv7.1 dimer digest into the cut KCNE1-Kv7.1 construct. The DNA encoding E1-Kv7.1-Kv7.1 and E1-Kv7.1 were in the pGEM vector and contained mutations to make the constructs suitable for voltage-clamp fluorometry recordings (Wang et al., J Biol Chem 273, 34069-34074 (1998)). The original KCNE1 and Kv7.1 sequences were therefore removed, one at a time, from the pGEM vector using different restriction enzymes (New England Biolabs). Sequences were separated using gel electrophoresis and harvested using Qiagen gel extraction kit. Corresponding wild type sequences were ligated into the construct using T4 Ligase (New England Biolabs). To ensure correct sequence the constructs were sequenced (Genewiz) and tested with different restriction enzymes in combination with gel electrophoresis to measure length and conformation of the gene. cRNA for injection of all constructs was prepared from linearized DNA using the T7 mMessage mMachine transcription kit (Ambion) according to the manufactures instructions. RNA quality was checked by gel electrophoresis, and RNA concentrations were quantified by UV spectroscopy.
Xenopus laevis oocytes were isolated and maintained (Bentzen, B. H. et al. Neuropharmacology 51, 1068-1077 (2006)). Approximately 50 nl cRNA (50 ng Kv7.1, KCNE1-Kv7.1-Kv7.1 or KCNE1-Kv7.1 alternatively 25 ng Kv7.1 together with 8 ng KCNE1 or KCNE1ΔC) was injected into each oocyte using a Nanojet microinjector (Drummond). Electrophysiological experiments were made 2-5 days after injection. Currents were measured at room temperature with the two-electrode voltage-clamp technique (CA-1B Dagan amplifier). Currents were sampled at 1-3.3 kHz, filtered at 500 Hz, and not leakage corrected. […] A control solution containing (in mM): 88 NaCl, 1 KCl, 15 HEPES, 0.4 CaCl2, and 0.8 MgCl2 was used. NaOH was added to adjust pH to 7.4, yielding a final sodium concentration of about 100 mM. The holding voltage was generally set to −80 mV. Activation curves were generally elicited by stepping to test voltages between −110 and +60 mV (2-4 s durations and 10 mV increments) followed by a tail voltage of −30 mV. For recordings of Kv7.1 at pH 9 and pH 10, the holding voltage was set to more negative voltages because the largest DHA-induced shifts induced channel opening already at −80 mV. […] Therefore, in arachidonyl amine experiments a brief hyperpolarizing pulse of 50 ms to −120 mV was introduced between the test voltage and the tail voltage to relief the channels from inactivation.
Test compounds were dissolved in 99.5% ethanol to a concentration of 100 mM and stored at −20° C. (Börjesson et al., Biophys J 95, 2242-2253 (2008); Börjesson et al., Biophys J 98, 396-403 (2010)). Shortly before experiments, test compounds were diluted in control solution to the desired test concentration. Pure control solution was added to the bath using a gravity-driven perfusion system. […]

intact guinea pig hearts = assay: Restoration of QT interval in intact hearts with E4031-induced Long QT; details: ECG and ventricular surface action potential
Source text: Long QT syndrome was induced in intact guinea pig hearts by administration of the drug E4031, a HERG channel blocker.

CCCCC/C=C\C/C=C\C/C=C\C/C=C\CCCC(=O)NCCS(=O)(=O)O [N-AT, N-arachidonoyl taurine]
ΔV1/2 ± SEM (G(V) shift) (Kv7.1; listed as N-arachidonoyl taurine): about −30 mV | ΔV1/2 ± SEM (G(V) shift) (Kv7.1; listed as N—AT): −26.2 ± 2.7 mV | QT interval in hearts with prolonged QT induced by E4031 (intact guinea pig hearts): restores the QT interval

— US20170216240A1, “METHODS FOR MODULATING IKS CHANNEL ACTIVITY” (UNIVERSITY OF MIAMI, priority 2014, published 2017)
